Several values for one entry are separate records, joined by “and”; a condition that tells them apart may be missing. Equal values may be shown once.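 All cell lines were grown in 96-well plates and treated with compound for 48 hours. Here, GI50 denotes the concentration required for 50% inhibition of growth. Definition used: TGI = concentration required for complete inhibition of growth.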
Assays:
Assay in all cases: NCI-60 cell line screen, 48 h
MDA-MB-468 breast = test system: MDA-MB-468 breast
EKVX NSCLC = test system: EKVX NSCLC
OVCAR-5 ovarian = test system: OVCAR-5 ovarian
A498 renal = test system: A498 renal
DU-145 prostate = test system: DU-145 prostate
T-47D breast = test system: T-47D breast
SF-268 CNS = test system: SF-268 CNS
A549 NSCLC = test system: A549 NSCLC
MDA-MB-231 breast = test system: MDA-MB-231 breast
HS 578T breast = test system: HS 578T breast
HCT-116 colon = test system: HCT-116 colon
UACC-62 melanoma = test system: UACC-62 melanoma
HCC-2998 colon = test system: HCC-2998 colon
HCT-15 colon = test system: HCT-15 colon
SNB-75 CNS = test system: SNB-75 CNS
PC-3 prostate = test system: PC-3 prostate
K-562 leukemia = test system: K-562 leukemia
MCF7 breast = test system: MCF7 breast
TK-10 renal = test system: TK-10 renal
SN12C renal = test system: SN12C renal
SK-MEL-28 melanoma = test system: SK-MEL-28 melanoma
MALME-3M melanoma = test system: MALME-3M melanoma
M14 melanoma = test system: M14 melanoma
SK-MEL-2 melanoma = test system: SK-MEL-2 melanoma
MDA-MB-435 = test system: MDA-MB-435
COLO 205 colon = test system: COLO 205 colon
OVCAR-4 ovarian = test system: OVCAR-4 ovarian
LOX IMVI melanoma = test system: LOX IMVI melanoma
IGROV1 ovarian = test system: IGROV1 ovarian
OVCAR-8 ovarian = test system: OVCAR-8 ovarian
RPMI-8226 leukemia = test system: RPMI-8226 leukemia
NCI-H522 lung = test system: NCI-H522 lung
ACHN renal = test system: ACHN renal
UO-31 renal = test system: UO-31 renal
KM12 colon = test system: KM12 colon
SNB-19 CNS = test system: SNB-19 CNS
OVCAR-3 ovarian = test system: OVCAR-3 ovarian
HL-60(TB) leukemia = test system: HL-60(TB) leukemia
SF-539 CNS = test system: SF-539 CNS
SF-295 CNS = test system: SF-295 CNS
NCI-H460 lung = test system: NCI-H460 lung
SK-MEL-5 melanoma = test system: SK-MEL-5 melanoma
U251 CNS = test system: U251 CNS
MOLT-4 leukemia = test system: MOLT-4 leukemia
SW-620 colon = test system: SW-620 colon
RXF 393 renal = test system: RXF 393 renal
BT-549 breast = test system: BT-549 breast

Question: What does the source list for `COC[C@@H](CC(C)C)N=C1NC(=O)/C(=C/c2ccc3ncsc3c2)N1`?
Answer: GI50 (MDA-MB-468 breast): 1.98 µM; TGI (MDA-MB-468 breast): 10.8 µM; GI50 (EKVX NSCLC): 3.27 µM; TGI (EKVX NSCLC): 75.8 µM; GI50 (OVCAR-5 ovarian): 3.04 µM; TGI (OVCAR-5 ovarian): > 100 µM; GI50 (A498 renal): 1.93 µM; TGI (A498 renal): 7.93 µM; GI50 (DU-145 prostate): 3.06 µM; TGI (DU-145 prostate): > 100 µM; GI50 (T-47D breast): 1.96 µM; TGI (T-47D breast): 9.01 µM; GI50 (SF-268 CNS): 3.41 µM; TGI (SF-268 CNS): 19 µM; GI50 (A549 NSCLC): 2.03 µM; TGI (A549 NSCLC): > 100 µM; GI50 (MDA-MB-231 breast): 3.65 µM; TGI (MDA-MB-231 breast): > 100 µM; GI50 (HS 578T breast): 2.26 µM; TGI (HS 578T breast): 8.33 µM; GI50 (HCT-116 colon): 1.45 µM; TGI (HCT-116 colon): 66.4 µM; GI50 (UACC-62 melanoma): 2.19 µM; TGI (UACC-62 melanoma): 8.63 µM; GI50 (HCC-2998 colon): 4.03 µM; TGI (HCC-2998 colon): 56.4 µM; GI50 (HCT-15 colon): 2.66 µM; TGI (HCT-15 colon): > 100 µM; GI50 (SNB-75 CNS): 1.04 µM; TGI (SNB-75 CNS): 6.75 µM; GI50 (PC-3 prostate): 3.9 µM; TGI (PC-3 prostate): 52.7 µM; GI50 (K-562 leukemia): 2.8 µM; TGI (K-562 leukemia): > 100 µM; GI50 (MCF7 breast): 2.64 µM; TGI (MCF7 breast): > 100 µM; GI50 (TK-10 renal): 2.95 µM; TGI (TK-10 renal): > 100 µM; GI50 (SN12C renal): 2.71 µM; TGI (SN12C renal): 30 µM; GI50 (SK-MEL-28 melanoma): 2.69 µM; TGI (SK-MEL-28 melanoma): 8.69 µM; GI50 (MALME-3M melanoma): 2.53 µM; TGI (MALME-3M melanoma): 7.29 µM; GI50 (M14 melanoma): 3.88 µM; TGI (M14 melanoma): 22 µM; GI50 (SK-MEL-2 melanoma): 1.88 µM; TGI (SK-MEL-2 melanoma): 4.32 µM; GI50 (MDA-MB-435): 3.56 µM; TGI (MDA-MB-435): 18.7 µM; GI50 (COLO 205 colon): 1.94 µM; TGI (COLO 205 colon): 6.28 µM; GI50 (OVCAR-4 ovarian): 6.14 µM; TGI (OVCAR-4 ovarian): 79.3 µM; GI50 (LOX IMVI melanoma): 2.57 µM; TGI (LOX IMVI melanoma): > 100 µM; GI50 (IGROV1 ovarian): 2.42 µM; TGI (IGROV1 ovarian): 22 µM; GI50 (OVCAR-8 ovarian): 2.88 µM; TGI (OVCAR-8 ovarian): > 100 µM; GI50 (RPMI-8226 leukemia): 2.8 µM; TGI (RPMI-8226 leukemia): 9.52 µM; GI50 (NCI-H522 lung): 1.16 µM; TGI (NCI-H522 lung): 4.89 µM; GI50 (ACHN renal): 2.46 µM; TGI (ACHN renal): 11.4 µM; GI50 (UO-31 renal): 2.36 µM; TGI (UO-31 renal): 6.7 µM; GI50 (KM12 colon): 3.19 µM; TGI (KM12 colon): 34.5 µM; GI50 (SNB-19 CNS): 1.76 µM; TGI (SNB-19 CNS): 48.3 µM; GI50 (OVCAR-3 ovarian): 1.22 µM; TGI (OVCAR-3 ovarian): 4.32 µM; GI50 (HL-60(TB) leukemia): 3.11 µM; TGI (HL-60(TB) leukemia): 8.36 µM; GI50 (SF-539 CNS): 1.04 µM; TGI (SF-539 CNS): 4.54 µM; GI50 (SF-295 CNS): 3.46 µM; TGI (SF-295 CNS): > 100 µM; GI50 (NCI-H460 lung): 3.08 µM; TGI (NCI-H460 lung): > 100 µM; GI50 (SK-MEL-5 melanoma): 2.8 µM; TGI (SK-MEL-5 melanoma): 8.85 µM; GI50 (U251 CNS): 2.58 µM; TGI (U251 CNS): > 100 µM; GI50 (MOLT-4 leukemia): 2.68 µM; TGI (MOLT-4 leukemia): 15.4 µM; GI50 (SW-620 colon): 2.14 µM; TGI (SW-620 colon): 20 µM; GI50 (RXF 393 renal): 1.91 µM; TGI (RXF 393 renal): 4.96 µM; GI50 (BT-549 breast): 1.56 µM; TGI (BT-549 breast): 7.59 µM

Question: For `CCN(CC)S(=O)(=O)c1ccc(OC)c(Nc2ncc(-c3ccccc3)o2)c1`, which GI50 (MDA-MB-468 breast) is on record?
Answer: The GI50 was > 10.4 µM.

Question: And the TGI (MDA-MB-468 breast)?
Answer: The TGI was > 25 µM.

Question: Which results are given for `Nc1c(C(=O)Nc2cccc([N+](=O)[O-])c2)sc2nc3c(cc12)C(O)CCC3` (stereo not given)?
Answer: GI50 (MDA-MB-468 breast): 2.11 µM; TGI (MDA-MB-468 breast): > 100 µM

Question: Which results are given for `CN1CCN(CCc2cccc(C(=O)c3cnn(-c4ccc(F)cc4)c3N)c2)CC1`?
Answer: GI50 (MDA-MB-468 breast): > 25 µM; TGI (MDA-MB-468 breast): > 25 µM

Question: `CC(C)NC[C@@H](C(=O)N1CCN(c2ncnc3c2[C@H](C)C[C@H]3O)CC1)c1ccc(Cl)cc1` was tested. Which GI50 (MDA-MB-468 breast) did it give?
Answer: Its GI50 is 0.112 µM and 0.134 µM.

Question: What about the TGI (MDA-MB-468 breast) of the same compound?
Answer: Its TGI is 0.582 µM and 2.19 µM.

Question: Which GI50 (MDA-MB-468 breast) does the source give for `COC(=O)[C@]12CC[C@@H](C)[C@H](C)[C@@H]1C1=CC[C@@H]3[C@@]4(C)C[C@@H](OC(C)=O)[C@H](O)[C@@](C)(COC(C)=O)[C@@H]4[C@H](O)C[C@@]3(C)[C@]1(C)CC2` here?
Answer: Its GI50 is 2.33 µM.

Question: And the TGI (MDA-MB-468 breast)?
Answer: Its TGI is 7.27 µM.

Question: With `COc1ccc(C(=O)/C=C/c2ccc(/C=C/c3cc(OC)c(OC)c(OC)c3)cc2)cc1` as the compound, how does the GI50 (MDA-MB-468 breast) read?
Answer: The GI50 was 3.39 µM.

Question: What about the TGI (MDA-MB-468 breast) of the same compound?
Answer: Its TGI is 48.7 µM.

Question: For `Cc1[c-]onc1C.Cc1[c-]onc1C.[Ag].[Ag].[NH-]S(=O)(=O)c1ccc(N=Nc2cc(N=Nc3ccc(S([NH-])(=O)=O)cc3)c3c(NC(=O)C(Cl)Cl)cccc3c2OC(=O)C(Cl)Cl)cc1`, which GI50 (MDA-MB-468 breast) is on record?
Answer: Its GI50 is 1.92 µM.

Question: And the TGI (MDA-MB-468 breast)?
Answer: The TGI was 8.48 µM.

Question: Which results are given for `ClCCn1c(CCl)nc2ccc(Cl)cc21`?
Answer: GI50 (MDA-MB-468 breast): 1.68 µM; TGI (MDA-MB-468 breast): 3.42 µM

Source: PubChem BioAssay (NCI)
